Results: patent US20210290644A1, “COMPOUNDS AND METHODS FOR TREATING FUNGAL INFECTIONS” (Amplyx Pharmaceuticals, Inc., priority 2018, published 2021)
“And” between values parts separate entries of the source, which are not always exact repeats. Equal values may be shown once.

Assay: Study #1 Phase 1: plasma and urine pharmacokinetics of Compound 1 and Compound 1A after IV infusion of Compound 1 (SAD, MAD, loading regimen)
Settings: both, human, plasma; for Vd: Vz
[1] = 275 mg, Cohort 5: Compound 1 275 mg/3 hr IV, single dose, geometric mean [geometric %CV]
[2] = 300 mg, Cohort 9: Compound 1 300 mg/3 hr IV QD × 14 days, Day 14, geometric mean
[3] = 600 mg, Cohort 10: Compound 1 600 mg/3 hr IV QD × 14 days, Day 14, geometric mean
[4] = 600 mg, Cohort 12 loading regimen: Compound 1 600 mg/1 hr IV QD, Day 7, geometric mean
[5] = 1000 mg, Cohort 11: Compound 1 1,000 mg/0.5 hr IV, single dose, geometric mean
[6] = 1000 mg, Cohort 11: Compound 1 1,000 mg/1 hr IV, single dose, geometric mean
[7] = 1000 mg, Cohort 11: Compound 1 1,000 mg/2 hr IV, single dose, geometric mean
[8] = 1000 mg, Cohort 11: Compound 1 1,000 mg/3 hr IV, single dose, geometric mean

From the text: This was a Phase 1, first-in-human, randomized, double-blind, placebo-controlled single ascending dose (SAD) and multiple ascending dose (MAD) escalation study of 120 healthy male and female subjects. The objectives of the study were to evaluate the safety, tolerability, and pharmacokinetics of single and multiple doses of Compound 1 administered by intravenous (IV) infusion.
In the single ascending dose (SAD) phase, Cohorts 1 to 6 and 11A to 11D received single doses. For Cohorts 11A to 11D, the infusion time varied from 0.5 to 3 hours to evaluate the relationship between C., and tolerability. In the multiple ascending dose (MAD) phase, Cohorts 7 to 10 received multiple doses over 14 days, and Cohort 12 examined the feasibility of a loading dose regimen.
Blood samples for the determination of Compound 1 and Compound 1A plasma concentrations were collected before and at appropriate times during all single- and multiple-dose administrations of Compound 1. For SAD Cohorts 1 to 6, urine samples for the determination of Compound 1A were collected through 48 hrs after dosing.
Eighty (80) subjects were enrolled into SAD Cohorts 1 to 6 and 11A to 11D. Within each cohort, six subjects were randomized to Compound 1 and two subjects to placebo. All 60 subjects randomized to Compound 1 completed dosing. Fifty-nine (59) subjects completed the study.
Forty (40) subjects were enrolled into MAD Cohorts 7 to 10 and Loading Dose Cohort 12. Within each cohort, six subjects were randomized to Compound 1 and two subjects to placebo.
The PK analysis population therefore consisted of 60 subjects in the SAD phase and 28 subjects in the MAD phase.

With `Nc1ncccc1-c1cc(Cc2ccc(COc3ccccn3)cc2)no1` [Compound 1A] the AUC(0-inf) [1] was 120 µg·h/mL, the Cmax [1] was 3960 ng/mL and the Tmax (275 mg, Cohort 5: Compound 1 275 mg/3 hr IV, single dose, median) was 3 h. The Vd [1] was 123 L and 1.75 L/kg, the AUC(0-t) (300 mg, AUC(0-24), Cohort 9: Compound 1 300 mg/3 hr IV QD × 14 days, Day 1, geometric mean) was 37.1 µg·h/mL and the AUC(0-t) (300 mg, AUC(0-24), Cohort 9: Compound 1 300 mg/3 hr IV QD × 14 days, Day 7, geometric mean) was 104 µg·h/mL. The AUC(0-t) (300 mg, AUC(0-24), Cohort 9: Compound 1 300 mg/3 hr IV QD × 14 days, Day 14, geometric mean) was 118 µg·h/mL, the Cmax (300 mg, Cohort 9: Compound 1 300 mg/3 hr IV QD × 14 days, Day 1, geometric mean) was 3690 ng/mL and the Cmax (300 mg, Cohort 9: Compound 1 300 mg/3 hr IV QD × 14 days, Day 7, geometric mean) was 6650 ng/mL. The Cmax [2] was 7520 ng/mL, the Tmax (300 mg, Cohort 9: Compound 1 300 mg/3 hr IV QD × 14 days, Day 1, median) was 3 h and the Tmax (300 mg, Cohort 9: Compound 1 300 mg/3 hr IV QD × 14 days, Day 7, median) was 3 h. The Tmax (300 mg, Cohort 9: Compound 1 300 mg/3 hr IV QD × 14 days, Day 14, median) was 3.02 h, the Vd [2] was 148 L and 2.22 L/kg and the Tmax (350 mg, Cohort 6: Compound 1 350 mg/3 hr IV, single dose, median) was 3 h. The AUC(0-t) (600 mg, AUC(0-24), Cohort 10: Compound 1 600 mg/3 hr IV QD × 14 days, Day 1, geometric mean) was 72.7 µg·h/mL, the AUC(0-t) (600 mg, AUC(0-24), Cohort 10: Compound 1 600 mg/3 hr IV QD × 14 days, Day 7, geometric mean) was 217 µg·h/mL and the AUC(0-t) (600 mg, AUC(0-24), Cohort 10: Compound 1 600 mg/3 hr IV QD × 14 days, Day 14, geometric mean) was 245 µg·h/mL. For the same compound, the AUC(0-t) (600 mg, AUC(0-24), Cohort 12 loading regimen: Compound 1 600 mg/1 hr IV QD, Day 4, geometric mean) was 219 µg·h/mL, the AUC(0-t) (600 mg, AUC(0-24), Cohort 12 loading regimen: Compound 1 600 mg/1 hr IV QD, Day 7, geometric mean) was 201 µg·h/mL and the Cmax (600 mg, Cohort 10: Compound 1 600 mg/3 hr IV QD × 14 days, Day 1, geometric mean) was 7570 ng/mL. For the same compound, the Cmax (600 mg, Cohort 10: Compound 1 600 mg/3 hr IV QD × 14 days, Day 7, geometric mean) was 14500 ng/mL, the Cmax [3] was 15400 ng/mL and the Cmax (600 mg, Cohort 12 loading regimen: Compound 1 600 mg/1 hr IV QD, Day 4, geometric mean) was 17900 ng/mL. For the same compound, the Cmax [4] was 17700 ng/mL, the Tmax (600 mg, Cohort 10: Compound 1 600 mg/3 hr IV QD × 14 days, Day 1, median) was 3 h and the Tmax (600 mg, Cohort 10: Compound 1 600 mg/3 hr IV QD × 14 days, Day 7, median) was 3.03 h. The Tmax (600 mg, Cohort 10: Compound 1 600 mg/3 hr IV QD × 14 days, Day 14, median) was 3 h, the Tmax (600 mg, Cohort 12 loading regimen: Compound 1 600 mg/1 hr IV QD, Day 4, median) was 1 h and the Tmax (600 mg, Cohort 12 loading regimen: Compound 1 600 mg/1 hr IV QD, Day 7, median) was 1 h. For the same compound, the Vd [3] was 175 L and 2.75 L/kg, the Vd [4] was 162 L and 2.27 L/kg and the AUC(0-t) (1000 mg, AUC(0-24), Cohort 11: Compound 1 1,000 mg/0.5 hr IV, single dose, geometric mean) was 131 µg·h/mL. For the same compound, the AUC(0-t) (1000 mg, AUC(0-24), Cohort 11: Compound 1 1,000 mg/1 hr IV, single dose, geometric mean) was 134 µg·h/mL, the AUC(0-t) (1000 mg, AUC(0-24), Cohort 11: Compound 1 1,000 mg/2 hr IV, single dose, geometric mean) was 130 µg·h/mL and the AUC(0-t) (1000 mg, AUC(0-24), Cohort 11: Compound 1 1,000 mg/3 hr IV, single dose, geometric mean) was 117 µg·h/mL. It also gave an AUC(0-t) (1000 mg, AUC(0-24), Cohort 12 loading regimen: Compound 1 1,000 mg/2 hr IV at 0 & 9 hr, Day 1, geometric mean) of 211 µg·h/mL, an AUC(0-t) (1000 mg, AUC(0-t), Cohort 11: Compound 1 1,000 mg/1 hr IV, single dose, geometric mean) of 481 µg·h/mL and an AUC(0-t) (1000 mg, AUC(0-t), Cohort 11: Compound 1 1,000 mg/2 hr IV, single dose, geometric mean) of 476 µg·h/mL. For the same compound, the AUC(0-inf) [5] was 434 µg·h/mL, the AUC(0-inf) [6] was 536 µg·h/mL and the AUC(0-inf) [7] was 541 µg·h/mL. It also gave an AUC(0-inf) [8] of 400 µg·h/mL, a Cmax [5] of 24900 ng/mL and a Cmax [6] of 20100 ng/mL. The Cmax [7] was 15600 ng/mL, the Cmax [8] was 11900 ng/mL and the Cmax (1000 mg, Cohort 12 loading regimen: Compound 1 1,000 mg/2 hr IV at 0 & 9 hr, Day 1, geometric mean) was 15700 ng/mL. It also gave a Tmax (1000 mg, Cohort 11: Compound 1 1,000 mg/0.5 hr IV, single dose, median) of 0.52 h, a Tmax (1000 mg, Cohort 11: Compound 1 1,000 mg/1 hr IV, single dose, median) of 1.02 h and a Tmax (1000 mg, Cohort 11: Compound 1 1,000 mg/2 hr IV, single dose, median) of 2.02 h. For the same compound, the Tmax (1000 mg, Cohort 11: Compound 1 1,000 mg/3 hr IV, single dose, median) was 3.02 h, the Tmax (1000 mg, Cohort 12 loading regimen: Compound 1 1,000 mg/2 hr IV at 0 & 9 hr, Day 1, median) was 11 h and the Vd [5] was 141 L and 19.7 L/kg. The Vd [6] was 139 L and 2.11 L/kg, the Vd [7] was 153 L and 2.43 L/kg and the Vd [8] was 153 L and 2.02 L/kg.
